# Reference: patent US10517889B2, “Modulators of SMAD7 expression” (Ionis Pharmaceuticals, Inc., priority 2017, dated 2019)
# Values joined by “and” are separate entries in the source; they are usually repeats but may differ in a detail not shown here. Equal entries are not always repeated. Strand notation (5' to 3'): a small letter for the sugar, then the base; units joined by * are phosphorothioate-linked, units joined directly phosphodiester-linked; [ ] holds rarer units or linkages, { } end groups; capitals alone tell only the bases. k = constrained ethyl (cEt); [5mC] = 5-methylcytosine; d = 2'-deoxy (DNA)
# Key:
# [1] = tested on: human SMAD7 mRNA; assay: Antisense inhibition of human SMAD7 mRNA expression in Hep3B cells by 3-10-3 cEt gapmers, 10,000 nM, electroporation (Example 2); type: cell-based; conditions: approximately 24 hours
# Method in brief: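 qRT-PCR (RTS5062) of SMAD7 mRNA, normalised to RIBOGREEN total RNA, gave percent inhibition relative to untreated controls. Hep3B cells at 20,000 per well received 10,000 nM oligonucleotide by electroporation, with ~24 h treatment.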
# [2] = tested on: human SMAD7 mRNA; assay: Dose-dependent inhibition of human SMAD7 mRNA expression in Hep3B cells (Example 3, Study 1 and 2); type: cell-based; conditions: electroporation; for % inhibition of SMAD7 mRNA expression: approximately 16 hours; for IC50: Study 2 (740-20000 nM)
# Method in brief: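 Hep3B cells, 20,000 per well, electroporated with antisense oligonucleotide at 0.31, 1.25, 5.00 or 20.00 μM (first series) or 0.74, 2.22, 6.67 or 20.00 μM (second series). After ~16 h, SMAD7 mRNA measured by RT-qPCR (RTS5062), normalised to RIBOGREEN total RNA. Percent inhibition vs untreated cells; IC50 derived.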
# [3] = Hep3B cells, electroporation with 10,000 nM antisense oligonucleotide, SMAD7 mRNA by RT-PCR (RTS5062), relative to untreated control cells
# [4] = 740 nM, Study 2, relative to untreated control cells
# [5] = SMAD7 mRNA, Hep3B cells, 10,000 nM antisense oligonucleotide, electroporation, primer probe set RTS5062, relative to untreated control cells
# [6] = Hep3B cells, electroporation with 10,000 nM antisense oligonucleotide, RTS5062, percent inhibition of SMAD7 mRNA relative to untreated control cells
# [7] = Hep3B cells, electroporation, 10,000 nM antisense oligonucleotide, RTS5062, relative to untreated control cells
# [8] = Hep3B cells, electroporation with 10,000 nM antisense oligonucleotide, primer probe set RTS5062, relative to untreated control cells
Substance,"% Inhibition [1, 3] [%]","% inhibition of SMAD7 mRNA expression [2, 4]","% inhibition of SMAD7 mRNA expression ([2]; 2220 nM, Study 2)","% inhibition of SMAD7 mRNA expression ([2]; 6670.0 nM, Study 2)","% inhibition of SMAD7 mRNA expression ([2]; 20000.0 nM, Study 2)",IC50 [2],"% Inhibition [1, 5] [%]","% Inhibition [1, 6] [%]","% inhibition of SMAD7 mRNA expression [1, 7] [%]","% inhibition of SMAD7 mRNA expression [1, 8] [%]","% inhibition of SMAD7 mRNA expression ([1]; Hep3B cells, electroporation, 10,000 nM, 3-10-3 cEt gapmers targeting SEQ ID NO: 3 and 4) [%]","% Inhibition ([1]; SMAD7 mRNA, Hep3B cells, electroporation with 10,000 nM antisense oligonucleotide, primer probe set RTS5062, relative to untreated control cells) [%]"
830095 (kT*kG*kA*dG*dT*dA*dA*dA*d[5mC]*dA*dA*dT*dA*k[5mC]*k[5mC]*k[5mC]; antisense) [compound 830095],73,3%,37%,42%,60%,2000 nM,,,,,,
830097 (k[5mC]*k[5mC]*kA*dT*d[5mC]*dT*dA*dA*d[5mC]*dA*dA*d[5mC]*dA*kT*k[5mC]*k[5mC]; antisense) [compound 830097],68,29%,60%,78%,86%,1000 nM,,,,,,
829762 (antisense k[5mC]*k[5mC]*kT*dT*d[5mC]*dA*dG*dA*dT*d[5mC]*d[5mC]*dG*d[5mC]*k[5mC]*kT*k[5mC]) [compound 829762],,27%,41%,59%,78%,> 20000 nM,67,,,,,
799607 (k[5mC]*k[5mC]*kA*dT*dT*dT*dA*d[5mC]*dA*dA*dA*dA*d[5mC]*kT*k[5mC]*kT; antisense) [compound 799607],,5%,12%,46%,76%,2000 nM,,71,,,,
799563 (kA*kA*kA*dA*d[5mC]*dA*dA*dA*d[5mC]*dA*dA*dG*dG*kG*kT*k[5mC]; antisense) [compound 799563],,32%,57%,85%,88%,5000 nM,,,68,,,
799429 (antisense k[5mC]*kA*k[5mC]*dA*dA*dG*dT*d[5mC]*dA*d[5mC]*dA*dA*d[5mC]*kT*kG*kG) [compound 799429],74,24%,50%,60%,63%,7000 nM,,,,,,
799070 (antisense kA*kG*kG*dG*dA*dA*dT*dA*dA*dG*dA*d[5mC]*dA*kA*kG*kG) [compound 799070],,0%,44%,42%,60%,4000 nM,,,,67,,
800048 (antisense kT*kG*kG*dA*dA*dA*dG*dG*dA*dA*dG*dA*d[5mC]*kT*k[5mC]*kG) [compound 800048],64,0%,31%,58%,58%,4000 nM,,,,,,
799808 (antisense kG*k[5mC]*kT*dG*dA*dA*dA*dG*dA*dA*dA*dG*dT*k[5mC]*k[5mC]*k[5mC]) [compound 799808],,8%,33%,52%,73%,10000 nM,,70,,,,
799312 (antisense k[5mC]*kA*kT*d[5mC]*dT*dT*dT*dA*dA*dG*d[5mC]*dA*d[5mC]*kG*k[5mC]*kT) [compound 799312],,23%,46%,49%,69%,4000 nM,,66,,,,
829776 (antisense kG*k[5mC]*kG*dA*dG*dT*dA*dG*dG*dA*d[5mC]*dG*dA*kG*kG*kG) [compound 829776],,26%,40%,66%,81%,5000 nM,64,,,,,
799967 (kG*kA*k[5mC]*dG*dA*dT*dG*dA*dA*dT*d[5mC]*d[5mC]*dT*kG*kG*k[5mC]; antisense) [compound 799967],72,0%,0%,0%,20%,9000 nM,,,,,,
800109 (antisense kA*k[5mC]*kA*dG*d[5mC]*d[5mC]*dA*d[5mC]*dA*dA*dG*dT*d[5mC]*kA*k[5mC]*kA) [compound 800109],86,,,,71% and 67% and 93% and 97%,1000 nM,88,,,75,,
799566 (kG*kA*kG*dT*dA*dA*dA*d[5mC]*dA*dA*dT*dA*d[5mC]*k[5mC]*k[5mC]*kT; antisense) [compound 799566],,0% and 10%,32% and 64%,63% and 82%,,2000 nM and 1000 nM,89,74,,,,
799589 (kA*kA*kT*dA*dT*d[5mC]*dT*dG*dT*dG*dT*d[5mC]*dT*kA*k[5mC]*kA; antisense) [compound 799589],,15%,58%,77%,82%,4000 nM,,65,,,,
799382 (antisense kA*k[5mC]*kT*dT*dT*dT*dA*dG*d[5mC]*dA*dA*dA*d[5mC]*kA*kG*kA) [compound 799382],,0%,36%,56%,75%,3000 nM,,,,82,,
799668 (antisense kG*kA*k[5mC]*dA*dG*dA*dT*dG*d[5mC]*d[5mC]*dA*dG*d[5mC]*kA*kA*kG) [compound 799668],,15%,17%,39%,72%,1000 nM,,75,,,,
790636 (kA*kG*k[5mC]*dA*dT*d[5mC]*dT*dG*dG*dA*d[5mC]*dA*dG*kT*k[5mC]*kA; antisense) [compound 790636],,89%,93%,95%,99%,< 700 nM,,,,,95,
799406 (antisense kG*kG*kG*dA*dA*d[5mC]*dA*dT*dG*dG*d[5mC]*d[5mC]*dT*kT*kT*k[5mC]) [compound 799406],,30%,51%,77%,84%,3000 nM,,,,65,,
799404 (antisense kG*kG*kA*dA*d[5mC]*dA*dT*dT*dT*dA*d[5mC]*d[5mC]*d[5mC]*k[5mC]*kT*kG) [compound 799404],,15%,39%,42%,59%,2000 nM,,,,68,,
799583 (kA*kA*kG*dA*d[5mC]*dA*dA*dA*d[5mC]*d[5mC]*dT*dT*d[5mC]*k[5mC]*kG*kA; antisense) [compound 799583],,26% and 31%,61% and 46%,73% and 59%,65% and 83%,3000 nM,74,74,,,,
799751 (antisense kG*kA*kG*d[5mC]*dT*dA*dA*dT*dG*dA*d[5mC]*dA*d[5mC]*kT*kG*kG) [compound 799751],,11%,35%,69%,65%,10000 nM,,,60,,,
829864 (antisense kG*kG*kG*dT*dA*dA*d[5mC]*dT*dG*d[5mC]*dT*dG*d[5mC]*kG*kG*kT) [compound 829864],,0%,33%,67%,76%,1000 nM,,,,,,68
